pIC50: −log10 of the molar value.
How the values were obtained:
BRD9 [1] = molecular target: T1, BRD9 (Homo sapiens, UniProt Q9H8M2); assay: BRD9-ligand displacement AlphaScreen; format: binding
T1 construct: A construct of human BRD9 covering residues 134-0245 in the pET28PP vector; made in house; host or cells: E. coli BL21 (DE3)
T1 sequence (Q9H8M2 134-245 limits assumed): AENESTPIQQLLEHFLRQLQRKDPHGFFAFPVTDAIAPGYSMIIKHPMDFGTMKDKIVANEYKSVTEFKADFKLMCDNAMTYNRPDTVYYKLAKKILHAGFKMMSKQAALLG
Method: BRD9 assays were performed with minimal modifications from the manufacturer's protocol (PerkinElmer, USA). All reagents were diluted in 50 mM HEPES, 150 mM NaCl, 0.1% w/v BSA, 0.01% w/v Tween20, pH 7.5. […] Plates were spun down at 150×g, and 100 nL of DMSO compound stock was added from pre-diluted plates by pin transfer using a Janus Workstation (PerkinElmer, USA). Under low light, a 2× suspension of Ni-coated Acceptor Beads and Streptavidin Donor Beads, was then added at 10 ul/well to a final concentration of 5 μg/ml by EL406 automated liquid handler (Biotek, USA).

CRBN-DDB1 = molecular target: T2, CRBN-DDB1 (Homo sapiens, UniProt Q96SW2); assay: CRBN-DDB1 ligand-displacement AlphaScreen; format: binding; settings: for pIC50: purified CRBN-DDB1 ligand displacement
T2 construct: made in house; host or cells: Sf9 cells (Invitrogen)
Method: Following a 30 min incubation, 20 uL detection solution containing Streptavidin Donor Beads and Nickel Chelate AlphaLISA® Acceptor Beads diluted to 20 ng/uL in assay buffer was added to each well.

[2] = molecular target: BRD9:CRBN-DDB1 protein complex (Homo sapiens, UniProt Q96SW2+Q9H8M2); assay: BRD9:CRBN-DDB1 dimerization assay (luminescence); settings: for BRD9:CRB9-DDB1 AUC / BRD9:CRB9-DDB1 Cmax: luminescence detection of dimerization assay; for formation of the BRD9:CRBN-DDB1 protein complex: relative to unmodified thalidomide, in words
Method: To measure this activity, a homogenous luminescence assay was developed to report on compound-induced proximity of BRD9 and CRBN.
To detect CRBN-DDBI/BRD4 dimerization, we adapted bead-based AlphaScreen technology. […] Compounds were then pinned at 100 nL per well from DMSO stock. After 1 incubation at room temperature. Nickel Chelate AlphaLISA Acceptor and Glutathione AlphaLISA Donor beads (PerkinElmer) were diluted in assay buffer to 20 μg/mL and added at 20 μl per well.

BRD4(1) = BRD4(1) (Homo sapiens, UniProt O60885); assay: BRD4(1) ligand-displacement AlphaScreen; format: binding; design: substituting protein and biotin-probe components for BRD4(1) protein at 20 nM final; His tag (inferred from Ni-coated acceptor beads)
BRD9 [3] = molecular target: T3, BRD9 (Homo sapiens, UniProt Q9H8M2); assay: BRD9 immunoblot in MOLM-13; settings: MOLM-13, 4 hour treatment, indicated concentrations; in words
T3 sequence (Q9H8M2 1-597): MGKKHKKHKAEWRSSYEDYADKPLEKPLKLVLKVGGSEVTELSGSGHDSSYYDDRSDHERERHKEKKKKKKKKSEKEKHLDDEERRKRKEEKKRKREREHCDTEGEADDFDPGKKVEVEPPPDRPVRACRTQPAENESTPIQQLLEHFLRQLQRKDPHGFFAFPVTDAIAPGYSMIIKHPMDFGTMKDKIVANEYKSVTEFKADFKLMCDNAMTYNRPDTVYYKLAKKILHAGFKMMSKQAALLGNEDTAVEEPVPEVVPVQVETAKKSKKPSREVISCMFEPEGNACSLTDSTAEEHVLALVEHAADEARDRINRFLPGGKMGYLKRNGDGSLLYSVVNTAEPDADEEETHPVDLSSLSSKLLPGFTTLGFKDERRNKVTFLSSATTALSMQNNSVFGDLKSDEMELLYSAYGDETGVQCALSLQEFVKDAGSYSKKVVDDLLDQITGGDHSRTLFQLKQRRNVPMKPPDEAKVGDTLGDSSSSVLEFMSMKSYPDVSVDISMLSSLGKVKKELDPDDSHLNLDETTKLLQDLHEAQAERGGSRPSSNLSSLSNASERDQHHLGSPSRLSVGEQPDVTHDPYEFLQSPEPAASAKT
Method: In additional experiments, cells were washed with PBS, before being lysed in RIPA buffer supplemented with 1×HALT™ protease inhibitor cocktail (Thermo Scientific) for 10 min on ice, followed by low-amplitude sonication for 10 seconds at 4° C. […] In soluble material was removed by centrifugation at 20,000×g for 20 min before protein content was quantified by BCA assay (Pierce). […] Blots were imaged using fluorescence-labeled secondary antibodies (LI-COR) on the OdysseyCLxImager (LI-COR).

BRD9 [4] = molecular target: T3, BRD9; assay: BRD9 degradation / cellular activity (Western blot, cell line not stated); settings: cell line not given

T2 sequence (Q96SW2 whole entry): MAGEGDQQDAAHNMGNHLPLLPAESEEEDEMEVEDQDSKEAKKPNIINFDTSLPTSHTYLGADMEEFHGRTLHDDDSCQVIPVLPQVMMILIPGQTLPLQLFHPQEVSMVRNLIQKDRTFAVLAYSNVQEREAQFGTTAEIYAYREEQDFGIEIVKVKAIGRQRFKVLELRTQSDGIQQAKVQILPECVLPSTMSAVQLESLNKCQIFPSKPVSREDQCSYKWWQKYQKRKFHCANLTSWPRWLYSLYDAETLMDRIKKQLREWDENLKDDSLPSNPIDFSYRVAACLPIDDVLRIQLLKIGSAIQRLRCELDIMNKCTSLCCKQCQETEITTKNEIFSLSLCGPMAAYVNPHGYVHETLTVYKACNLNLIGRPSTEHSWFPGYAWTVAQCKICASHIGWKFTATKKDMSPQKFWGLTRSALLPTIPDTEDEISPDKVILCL
T2 sequence (Q16531 whole entry partner): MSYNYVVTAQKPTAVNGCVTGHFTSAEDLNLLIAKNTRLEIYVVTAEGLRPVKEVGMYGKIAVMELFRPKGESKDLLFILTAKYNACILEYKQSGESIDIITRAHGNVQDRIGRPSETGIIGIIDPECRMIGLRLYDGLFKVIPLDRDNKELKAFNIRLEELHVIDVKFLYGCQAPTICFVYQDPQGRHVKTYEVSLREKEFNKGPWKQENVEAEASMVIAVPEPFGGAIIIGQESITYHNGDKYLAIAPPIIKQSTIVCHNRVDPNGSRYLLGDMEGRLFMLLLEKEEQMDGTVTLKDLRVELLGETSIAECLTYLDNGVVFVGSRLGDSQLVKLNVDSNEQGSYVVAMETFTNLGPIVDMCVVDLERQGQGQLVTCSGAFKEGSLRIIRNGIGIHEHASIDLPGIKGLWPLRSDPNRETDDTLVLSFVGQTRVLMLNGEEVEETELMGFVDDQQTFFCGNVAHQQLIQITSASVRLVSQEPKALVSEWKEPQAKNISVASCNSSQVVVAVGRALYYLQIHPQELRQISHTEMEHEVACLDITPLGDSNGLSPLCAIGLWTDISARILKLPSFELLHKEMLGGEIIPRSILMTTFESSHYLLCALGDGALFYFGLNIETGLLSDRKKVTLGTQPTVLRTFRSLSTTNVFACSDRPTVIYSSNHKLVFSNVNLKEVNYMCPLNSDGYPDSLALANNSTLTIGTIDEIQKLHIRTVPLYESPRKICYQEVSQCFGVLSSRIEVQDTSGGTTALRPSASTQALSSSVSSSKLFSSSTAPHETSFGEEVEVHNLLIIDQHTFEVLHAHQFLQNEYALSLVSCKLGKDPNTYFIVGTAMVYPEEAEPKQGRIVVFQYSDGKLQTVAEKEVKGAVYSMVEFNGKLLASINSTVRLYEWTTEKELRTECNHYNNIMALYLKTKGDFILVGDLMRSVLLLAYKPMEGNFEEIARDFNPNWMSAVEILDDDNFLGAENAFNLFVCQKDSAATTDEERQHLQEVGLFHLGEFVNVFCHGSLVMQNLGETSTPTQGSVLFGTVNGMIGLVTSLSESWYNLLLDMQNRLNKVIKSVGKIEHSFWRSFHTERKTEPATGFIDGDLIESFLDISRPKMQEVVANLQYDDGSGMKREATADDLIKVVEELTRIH
BRD9:CRBN-DDB1 protein complex, sequence (Q96SW2 whole entry, one chain of several): as the sequence (Q96SW2 whole entry) above
BRD9:CRBN-DDB1 protein complex, sequence (Q16531 whole entry partner, one chain of several): as the sequence (Q16531 whole entry partner) above

Compound | pIC50 (BRD9 [1]) | pIC50 (CRBN-DDB1) | BRD9:CRB9-DDB1 AUC [2] | BRD9:CRB9-DDB1 Cmax [2] | pIC50 (BRD4(1)) | BRD9 protein level (immunoblot) (BRD9 [3]) | BRD9:CRBN-DDB1 dimerization, comparison in words [2] | BRD9 degradation / cellular potency, in words (BRD9 [4]) | formation of the BRD9:CRBN-DDB1 protein complex [2] | CRBN-DDB1 affinity, in words (CRBN-DDB1; comparison of phthalimide linkages)
COc1cc(-c2cn(C)c(=O)c3cc(C(=N)NC4CCS(=O)(=O)CC4)sc23)ccc1OCC(=O)NCCCCNC(=O)COc1cccc2c1C(=O)N(C1CCC(=O)NC1=O)C2=O (stereo not shown) [Compound I-1] | 7.87 | 7.31 | 44270 | 42.5 nM | 5.42 | – | – | – | significantly induce formation of the complex | –
COc1cc(-c2cn(C)c(=O)c3cc(C(=N)NC4CCS(=O)(=O)CC4)sc23)ccc1OCC(=O)NCCCCCCCCNC(=O)COc1cccc2c1C(=O)N(C1CCC(=O)NC1=O)C2=O (stereo not shown) [Compound I-2] | 7.72 | 7.36 | 71477 | 95.1 nM | 5.47 | Marked protein loss | improved dimerization relative to the short four-carbon linked compound I-1 | – | significantly induce formation of the complex | –
COc1cc(-c2cn(C)c(=O)c3cc(C(=N)NC4CCS(=O)(=O)CC4)sc23)ccc1OCC(=O)NCCCCCCCCNc1cccc2c1C(=O)N(C1CCC(=O)NC1=O)C2=O (stereo not shown) [Compound I-5] | 7.81 | 7.97 | 67227 | 37.4 nM | 5.81 | effectively downregulate BRD9 over a broad range of concentrations | – | – | significantly induce formation of the complex | –
COc1cc(-c2cn(C)c(=O)c3cc(C(=N)NC4CCS(=O)(=O)CC4)sc23)ccc1OCC(=O)N1CCC(C2CCN(C(=O)COc3cccc4c3C(=O)N(C3CCC(=O)NC3=O)C4=O)CC2)CC1 (stereo not shown) [Compound I-7] | 7.90 | 7.80 | 107794 | 54.0 nM | 5.82 | – | significant improvement | significant improvement | significantly induce formation of the complex | –
COc1cc(-c2cn(C)c(=O)c3cc(C(=N)NC4CCS(=O)(=O)CC4)sc23)ccc1OCC(=O)NCCCCCCOc1cccc2c1C(=O)N(C1CCC(=O)NC1=O)C2=O (stereo not shown) [Compound I-8] | 7.52 | 7.70 | 144813 | 111 nM | 5.15 | Marked protein loss | further improved dimerization relative to compound I-2 | – | significantly induce formation of the complex | slightly improved binding over acetamide ethers I-1 and I-2
COc1cc(-c2cn(C)c(=O)c3cnccc23)cc(OC)c1CN(C)CC(=O)NCCCCCCNc1ccc2c(c1)C(=O)N(C1CCC(=O)NC1=O)C2=O (stereo not shown) [Compound I-12] | 7.25 | 8.07 | 60256 | 8.39 nM | < 4.30 | – | – | – | significantly induce formation of the complex | –
COc1cc(-c2cn(C)c(=O)c3cnccc23)cc(OC)c1CN(C)CC(=O)NCCOCCOCCOCC(=O)N[C@@H](C(=O)N1C[C@@H](O)C[C@@H]1C(=O)NCc1ccc(-c2scnc2C)cc1)C(C)(C)C [Compound I-23] | 7.36 | – | – | – | < 4.30 | – | – | – | – | –
COc1cc(-c2cn(C)c(=O)c3cnccc23)cc(OC)c1CN(C)CC(=O)NCCCCCCCCNC(=O)COc1cccc2c1C(=O)N(C1CCC(=O)NC1=O)C2=O (stereo not shown) [Compound I-24] | 7.32 | 7.83 | 58563 | 27.3 nM | < 4.30 | – | – | – | significantly induce formation of the complex | –

More lines, main results first:

pIC50 (BRD9 [1]) | pIC50 (CRBN-DDB1) | BRD9:CRB9-DDB1 AUC [2] | BRD9:CRB9-DDB1 Cmax [2] | pIC50 (BRD4(1)) | BRD9 protein level (immunoblot) (BRD9 [3]) | BRD9:CRBN-DDB1 dimerization, comparison in words [2] | BRD9 degradation / cellular potency, in words (BRD9 [4]) | Compound | formation of the BRD9:CRBN-DDB1 protein complex [2] | CRBN-DDB1 affinity, in words (CRBN-DDB1; comparison of phthalimide linkages)
7.08 | 8.08 | 139380 | 8.22 nM | < 4.30 | – | – | – | COc1cc(-c2cn(C)c(=O)c3cnccc23)cc(OC)c1CN(C)CC(=O)NCCCCCCCCNc1cccc2c1C(=O)N(C1CCC(=O)NC1=O)C2=O (stereo not shown) [Compound I-15] | significantly induce formation of the complex | –
7.44 | 7.31 | 50182 | 44.9 nM | 5.50 | – | reduced this activity | – | COc1cc(-c2cn(C)c(=O)c3cc(C(=N)NC4CCS(=O)(=O)CC4)sc23)ccc1OCC(=O)NCCCOCCOCCOCCCNC(=O)COc1cccc2c1C(=O)N(C1CCC(=O)NC1=O)C2=O (stereo not shown) [Compound I-3] | significantly induce formation of the complex | –
7.94 | 7.75 | 46614 | 33.7 nM | 5.95 | – | superior | superior | COc1cc(-c2cn(C)c(=O)c3cc(C(=N)NC4CCS(=O)(=O)CC4)sc23)ccc1OCC(=O)NCCCCCCCCNc1ccc2c(c1)C(=O)N(C1CCC(=O)NC1=O)C2=O (stereo not shown) [Compound I-9] | significantly induce formation of the complex | –

Reference: patent US11285218B2, “Degradation of bromodomain-containing protein 9 (BRD9) by conjugation of BRD9 inhibitors with E3 ligase ligand and methods of use” (Dana-Farber Cancer Institute, Inc., priority 2016, dated 2022)
